Reference: patent US6268366A, “Amide derivatives of substituted quinoxaline 2,3-diones as glutamate receptor antagonists” (Warner-Lambert Company, priority 2000, dated 2001)

Tests used:
[1] = molecular target: T1, glycine (GLY) site of the NMDA receptor (Rattus norvegicus, UniProt P35439); experiment: glycine (GLY) site of the NMDA receptor binding affinity (Jones et al.)
T1 construct: measured as described in Jones S. M., et al., Pharmacol. Methods, 1989;21:161; from tissue

[2] = molecular target: kainate site (non-NMDA receptor); experiment: kainate site (non-NMDA receptor) binding affinity (London and Coyle)
AMPA receptors = experiment: AMPA receptor binding affinity (Honore et al.)
CF-1 strain mice = experiment: maximal electroshock (MES) assay in CF-1 strain mice, corneal electrodes; assay type: in vivo; conditions: for Ataxic (%) / Protected (%): MES, mice IV; for duration of action in maximal electroshock time course compared with PNQX: mice, 30 mg/kg IV, versus standard PNQX, FIGS. 1 and 2
Experimental: Additionally, as a preliminary indicator of in vivo CNS activity related to anticonvulsant activity and potential neuroprotection, a maximal electroshock assay in CF-1 strain mice (20-25 g) was performed with corneal electrodes by conventional methods as described previously (Krall, et al., Epilepsia, 1988;19:409-428).
FIGS. […] The graph is the percent of mice protected versus the time in minutes.

Row | IC50 [1] | IC50 KA [2] | IC50 (AMPA receptors) | Compound | other results
1 | 100 nM | 290 nM | 210 nM | CCOC(=O)N(C)Cc1c(C)c([N+](=O)[O-])cc2[nH]c(=O)c(=O)[nH]c12 [Compound 15, Methyl-(6-methyl-7-nitro-2,3-dioxo-1,2,3,4-tetrahydro-quinoxalin-5-ylmethyl)-carbamic acid ethyl ester] | Ataxic (%) (CF-1 strain mice; 10 min, 3 mg/kg): 0%; Protected (%) (CF-1 strain mice; 10 min, 3 mg/kg): 0%; Ataxic (%) (CF-1 strain mice; 10 min, 10 mg/kg): 0%; Protected (%) (CF-1 strain mice; 10 min, 10 mg/kg): 40%; Ataxic (%) (CF-1 strain mice; 30 min, 3 mg/kg): 0%; Protected (%) (CF-1 strain mice; 30 min, 3 mg/kg): 0%; Ataxic (%) (CF-1 strain mice; 30 min, 10 mg/kg): 0%; Protected (%) (CF-1 strain mice; 30 min, 10 mg/kg): 60%
2 | 40 nM | 5980 nM | 620 nM | Cc1c([N+](=O)[O-])cc2[nH]c(=O)c(=O)[nH]c2c1CN(C)C(=O)c1cc2ccccc2s1 [Compound 13, Benzo[b]thiophene-2-carboxylic acid methyl-(6-methyl-7-nitro-2,3-dioxo-1,2,3,4-tetrahydro-quinoxalin-5-ylmethyl)-amide] | –
3 | 40 nM | 1980 nM | 980 nM | Cc1c([N+](=O)[O-])cc2[nH]c(=O)c(=O)[nH]c2c1CN(C)C(=O)c1ccc(Cl)cc1 [Compound 7, 4-Chloro-N-methyl-N-(6-Methyl-7-nitro-2,3-dioxo-1,2,3,4-tetrahydro-quinoxalin-5-ylmethyl)-benzamide] | –
4 | – | 3700 nM | 1920 nM | Cc1c([N+](=O)[O-])cc2[nH]c(=O)c(=O)[nH]c2c1CN(C)C(=O)c1ccc(C(F)(F)F)cc1 [Compound 8, N-Methyl-N-(6-Methyl-7-nitro-2,3-dioxo-1,2,3,4-tetrahydro-quinoxalin-5-ylmethyl)-4-trifluoromethyl-benzamide] | –
5 | 300 nM | 3210 nM | 910 nM | Cc1c([N+](=O)[O-])cc2[nH]c(=O)c(=O)[nH]c2c1CN(C)C(=O)C1CCCCC1 [Compound 3, Cyclohexanecarboxylic acid-methyl-(6-methyl-7-nitro-2,3-dioxo-1,2,3,4-tetrahydro-quinoxalin-5-ylmethyl)amide] | –
6 | 200 nM | 2970 nM | 2050 nM | Cc1c([N+](=O)[O-])cc2[nH]c(=O)c(=O)[nH]c2c1CN(C)C(=O)CC1CCCCC1 [Compound 4, 2-Cyclohexyl-N-methyl-N-(6-methyl-7-nitro-2,3-dioxo-1,2,3,4-tetrahydro-quinoxalin-5-ylmethyl)-acetamide] | –
7 | 5 nM | 850 nM | 520 nM | COc1ccc(C(=O)N(C)Cc2c(C)c([N+](=O)[O-])cc3[nH]c(=O)c(=O)[nH]c23)cc1 [Compound 14, 4-Methoxy-N-methyl-N-(6-methyl-7-nitro-2,3-dioxo-1,2,3,4-tetrahydro-quinoxalin-5-ylmethyl)-benzamide] | –
8 | – | 3450 nM | 1690 nM | Cc1c([N+](=O)[O-])cc2[nH]c(=O)c(=O)[nH]c2c1CN(C)C(=O)c1ccc(Cl)c(Cl)c1 [Compound 9, 3,4-Dichloro-N-methyl-N-(6-methyl-7-nitro-2,3-dioxo-1,2,3,4-tetrahydro-quinoxalin-5-ylmethyl)-benzamide] | –
9 | 8 nM | 1230 nM | 460 nM | Cc1c([N+](=O)[O-])cc2[nH]c(=O)c(=O)[nH]c2c1CN(C)C(=O)c1cccs1 [Compound 11, Thiophene-2-carboxylic acid-methyl-(6-methyl-7-nitro-2,3-dioxo-1,2,3,4-tetrahydro-quinoxalin-5-ylmethyl)-amide] | Ataxic (%) (CF-1 strain mice; 5 min, 10 mg/kg): 0%; Protected (%) (CF-1 strain mice; 5 min, 10 mg/kg): 0%; Ataxic (%) (CF-1 strain mice; 5 min, 30 mg/kg): 40%; Protected (%) (CF-1 strain mice; 5 min, 30 mg/kg): 40%; Ataxic (%) (CF-1 strain mice; 15 min, 10 mg/kg): 0%; Protected (%) (CF-1 strain mice; 15 min, 10 mg/kg): 40%; Ataxic (%) (CF-1 strain mice; 15 min, 30 mg/kg): 60%; Protected (%) (CF-1 strain mice; 15 min, 30 mg/kg): 80%; Ataxic (%) (CF-1 strain mice; 30 min, 10 mg/kg): 0%; Protected (%) (CF-1 strain mice; 30 min, 10 mg/kg): 40%; Ataxic (%) (CF-1 strain mice; 30 min, 30 mg/kg): 20%; Protected (%) (CF-1 strain mice; 30 min, 30 mg/kg): 40%; Ataxic (%) (CF-1 strain mice; 60 min, 10 mg/kg): 0%; Protected (%) (CF-1 strain mice; 60 min, 10 mg/kg): 0%; Ataxic (%) (CF-1 strain mice; 60 min, 30 mg/kg): 20%; Protected (%) (CF-1 strain mice; 60 min, 30 mg/kg): 40%; duration of action in maximal electroshock time course compared with PNQX (CF-1 strain mice): extended duration of action
10 | 6 nM | 1210 nM | 380 nM | Cc1c([N+](=O)[O-])cc2[nH]c(=O)c(=O)[nH]c2c1CN(C)C(=O)c1ccco1 [Compound 12, Furan-2-carboxylic acid methyl-(6-methyl-7-nitro-2,3-dioxo-1,2,3,4-tetrahydro-quinoxalin-5-ylmethyl)-amide] | Ataxic (%) (CF-1 strain mice; 3 min, 30 mg/kg): 40%; Protected (%) (CF-1 strain mice; 3 min, 30 mg/kg): 40%; Ataxic (%) (CF-1 strain mice; 15 min, 10 mg/kg): 0%; Protected (%) (CF-1 strain mice; 15 min, 10 mg/kg): 40%; Ataxic (%) (CF-1 strain mice; 15 min, 30 mg/kg): 60%; Protected (%) (CF-1 strain mice; 15 min, 30 mg/kg): 80%; Protected (%) (CF-1 strain mice; 30 min, 10 mg/kg): 40%; Ataxic (%) (CF-1 strain mice; 30 min, 30 mg/kg): 20%; Protected (%) (CF-1 strain mice; 30 min, 30 mg/kg): 40%; Ataxic (%) (CF-1 strain mice; 60 min, 30 mg/kg): 20%; Protected (%) (CF-1 strain mice; 60 min, 30 mg/kg): 40%; duration of action in maximal electroshock time course compared with PNQX (CF-1 strain mice): extended duration of action
11 | 30 nM | 2770 nM | 1220 nM | Cc1c([N+](=O)[O-])cc2[nH]c(=O)c(=O)[nH]c2c1CN(C)C(=O)c1ccccc1 [Compound 6, N-methyl-N-(6-methyl-7-nitro-2,3-dioxo-1,2,3,4-tetrahydro-quinoxalin-5-ylmethyl)-benzamide] | –
12 | 20 nM | 590 nM | 350 nM | Cc1c([N+](=O)[O-])cc2[nH]c(=O)c(=O)[nH]c2c1CN(C)C(=O)Cc1ccccc1 [Compound 5, N-methyl-N-(6-methyl-7-nitro-2,3-dioxo-1,2,3,4-tetrahydro-quinoxalin-5-ylmethyl)-2-phenyl-acetamide] | –
13 | 30 nM | 1660 nM | 350 nM | CC(=O)N(C)Cc1c(C)c([N+](=O)[O-])cc2[nH]c(=O)c(=O)[nH]c12 [Compound 1, N-Methyl-N-(6-methyl-7-nitro-2,3-dioxo-1,2,3,4-tetrahydro-quinoxalin-5-ylmethyl)-acetamide] | –

Row | Compound | IC50 [1] | IC50 KA [2] | IC50 (AMPA receptors) | other results
14 | Cc1c([N+](=O)[O-])cc2[nH]c(=O)c(=O)[nH]c2c1CN(C)C(=O)c1ccc([N+](=O)[O-])cc1 [Compound 10, N-Methyl-N-(6-Methyl-7-nitro-2,3-dioxo-1,2,3,4-tetrahydro-quinoxalin-5-ylmethyl)-4-nitro-benzamide] | – | 950 nM | 1120 nM | –
